{
  "source": "patent US9096833B2",
  "about": "“Methods of treating pre-malignant ductal cancer with autophagy inhibitors” (GEORGE MASON UNIVERSITY, priority 2009, dated 2015)",
  "key": {"[1]": {"test_system": "autophagy associated pathways", "test": "Cell signaling pathway mapping by reverse phase protein microarray (RPMA) of DCIS spheroids pre and post chloroquine", "type": "cell-based, human", "conditions": "for autophagy associated signal pathway proteins/endpoints (Atg5, AKT, ERK, mTOR, IRS-1, p38 etc.) by RPMA: chloroquine phosphate 50 μM for 4 days, spheroids pre vs post treatment, n=3", "description": "(§1) Pharmacological inhibition of autophagy. […] CO-containing medium was replaced three times per week for a period of 6 months.\n(§2) Statistics. The Student T-test, two tailed with Welch's correction, was used to calculate the p-value, and to determine the statistical difference of epithelial outgrowth area before and after CQ treatment. P values <0.05 were considered significant. Standard deviation (SO) or standard error of the mean (SEM) was calculated for group comparisons. Wilcoxon rank sum was used to determine the differences between CQ treated and untreated groups for the reverse phase protein arrays. A p=0.1 was considered different for small sample sizes."}, "[2]": {"test_system": "DCIS organoid cell cultures", "test": "H&E histomorphology of chloroquine treated DCIS organoid cell cultures", "type": "cell-based, human", "conditions": "chloroquine phosphate (50 μM)", "description": "as §1\nImmunohistochemistry. Formalin fixed murine tissue or DCIS organoids were processed and paraffin embedded by commercial laboratories (AML Laboratories, Inc, Rosedale, Md. or Bi-Biomics, Nampa, Id.). Formalin fixed paraffin embedded (FFPE) tissue sections (5 μm or 1 μm thickness) mounted on positively charged glass slides were baked at 56° C. for 20 min., deparaffinized in xylene and rehydrated in a series of graded alcohols (100%, 95%, and 70%) with a final rinse in wash buffer (Dako, Carpinteria, Calif., USA). Antigen retrieval, when necessary, was performed with proteinase K or heat induced epitope retrieval. Immunostaining was performed on a Dako Autostainer with an Envision+HRP staining kit (Dako) per manufacturer's instructions. Stained tissue sections were counterstained with Hematoxylin (Dako), rinsed in distilled water and developed in Scott's Tap Water Substitute solution. Cover slips were applied using aqueous mounting medium (Paramount; Dako). Images were captured with an Olympus BX51 microscope using 4×, 10×, 20×, or 100× objectives."}, "[3]": {"test_system": "DCIS malignant precursor cells", "description": "Tissue collection. […] Gross tissue pathology at the time of procurement was assessed by a board certified pathologist. Tissue containing DCIS lesions was excised for further macrodissection and rinsed in sterile phosphate buffered saline to remove sentinel lymph node dye. Using sterile technique, ductal tissue was dissected from surrounding breast adipose/fibrous tissue. The ductal tissue was rinsed in serum free DMEM/F12 medium (Invitrogen, Carlsbad, Calif., USA) supplemented with human recombinant EGF (10 ng/mL; Cell Signaling Technology, Danvers, Mass., USA or Millipore, Billerica, Mass., USA), insulin (10 μg/mL; Roche, Indianapolis, Ind., USA), streptomycin sulfate (100 μg/mL; Sigma, St. Louis, Mo., USA) and gentamicin sulfate (20 μg/mL; Sigma) prior to distribution in culture flasks (MidSci, St. Louis, Mo., USA). Ductal tissue was allowed to attach to the culture surface and observed daily for cellular outgrowths. Non-adherent organoids were removed from the culture flask.\nOrganoid ex vivo culture. Dissected breast ductal tissue was grown in 115 cm^2 TPP reclosable flasks (MidSci) or 10 cm^2 culture tubes (MidSci) in serum free DMEM/F12 medium supplemented with human recombinant EGF (10 ng/mL), insulin (10 μg/mL), streptomycin sulfate (100 μg/mL) and gentamicin sulfate (20 μg/mL), with or without 0.36% (v/v) murine Engelbreth-Holm-Swarm (EHS) derived, growth factor reduced, basement membrane extract (Trevigen, Gaithersburg, Md., USA) at 37° C. in a humidified 5.0% CO2 atmosphere. Medium was replaced three times per week. Cultures were maintained continuously for up to one year. Periodically, organoids were removed, under microscopic visualization, for propagation into new culture flasks or phenotypic and molecular analysis.\nas §1, §2"}, "[4]": {"test_system": "DCIS organoid culture spheroids", "test": "Autophagosome lysosome imaging with LysoTracker Red in DCIS organoid culture", "type": "cell-based, human", "conditions": "chloroquine phosphate (50 μM) for 2 weeks"}},
  "data": [
    {"smiles": "CCN(CC)CCCC(C)Nc1ccnc2cc(Cl)ccc12", "note": "(stereo not drawn) [chloroquine, N′-(7-chloroquinolin-4-yl)-N,N-diethyl-pentane-1,4-diamine]", "values": [
      {"measurement": "apoptosis (elevation of cleaved PARP Asp214)", "setting": "[1]; as early as 48 hours post treatment", "value": "induced apoptosis"},
      {"measurement": "autophagy associated signal pathway proteins/endpoints (Atg5, AKT, ERK, mTOR, IRS-1, p38 etc.) by RPMA", "setting": "[1]; listed as CQ", "value": "suppressed"},
      {"measurement": "autophagy associated signal pathway proteins/endpoints (Atg5, AKT, ERK, mTOR, IRS-1, p38 etc.) by RPMA", "setting": "[1]; listed as Chloroquine", "value": "markedly inhibited"},
      {"measurement": "autophagy associated signal pathway proteins/endpoints (Atg5, AKT, ERK, mTOR, IRS-1, p38 etc.) by RPMA", "setting": "[1]; listed as chloroquine phosphate", "value": "suppressed autophagy associated proteins"},
      {"measurement": "histology of organoid cultured in the presence of chloroquine for 6 months", "setting": "[2]; 6 months", "value": "complete absence of cellular outgrowths and degenerated cells within the duct"},
      {"measurement": "histology of organoid 2 days post chloroquine treatment", "setting": "[2]; 2 days", "value": "Degeneration of the invading DCIS cells within the organoid"},
      {"measurement": "explants that did not have any spheroids following chloroquine treatment", "setting": "[3]; case 09-148, chloroquine phosphate 50 μM", "value": "12 out of 14"},
      {"measurement": "spheroids after treatment", "setting": "[3]; case 09-301, n=3, 20.5±7.8 prior to treatment", "value": "no spheroids observed"},
      {"measurement": "ex vivo invasion of autologous stroma", "setting": "[3]; chloroquine phosphate", "value": "suppressed ex vivo invasion of autologous stroma"},
      {"measurement": "inhibition of spheroid outgrowth, CQ in combination with tamoxifen", "setting": "[3]; cultured DCIS cells, in combination with anti-estrogen compound (tamoxifen)", "value": "pronounced effect"},
      {"measurement": "number of spheroids generated post chloroquine treatment, majority of explants", "setting": "[3]; two different patient DCIS cases, up to 113 spheroids per duct organoid untreated", "value": "zero"},
      {"measurement": "spheroid integrity and LysoTracker Red distribution", "setting": "[4]", "value": "Dissociation of the spheroid, and diffuse accumulation of LysoTracker Red"}
    ]}
  ]
}
